Assay results: patent US20260248833A1, “PYRIMIDINE NUCLEOSIDE TREATMENTS” (The Children`s Medical Center Corporation, priority 2022, published 2026)
Entries after “also recorded” stand apart in the source; their conditions may differ.

How the values were obtained:
K562 cells = assay: Terminal restriction fragment (TRF) Southern blot telomere length, K562 cells; type: cell-based, human; settings: K562 cells
Procedure: (§1) Cell culture: K562 cells (ATCC) were grown in RPMI1 1640 (Gibco) media supplemented with 10% fetal bovine serum. 293T cells (ATCC) were grown in DMEM (Gibco) supplemented with 10% fetal bovine serum, and were subcultured using 0.05% trypsin (Gibco). iPSCs were derived, characterized and cultured as previously described. iPSCs were grown in Essential 8 Media (Life Technologies) supplemented with the ROCK inhibitor Y271632 (Stem Cell Technologies) at 10 μM on plates coated with hES qualitied Matrigel matrix (Corning) and were subcultured using Accutase (Stem Cell Technologies).
(§2) Terminal Restriction Fragment Length Analysis: genomic DNA was isolated from cells using the Invitrogen Purelink Genomic DNA mini kit (Invitrogen). 1-3 μg of gDNA was digested with RsaI and HinfI for 2-3 hrs at 37° C. and loaded onto a 0.6% agarose gel followed by Southern blotting using the Telotaggg Telomere Length Assay Kit (Roche). Quantification was performed using the WALTER webtool.

293T cells = assay: Terminal restriction fragment (TRF) Southern blot telomere length, 293T cells; type: cell-based, human
Procedure: as §1, §2

[1] = system: T-free super-telomerase expressing cells (293T TERC-null); assay: Slot blot of GGAAAG repeat content in cellular DNA; type: cell-based, human; settings: 5FU (10 μM) or HU (500 μM)
Procedure: Slot blotting: slot blotting was performed as described with minor modifications. Briefly, DNA concentration was normalized to 20 ng/μl using a nanodrop spectrophotometer. 3.3 μl of DNA was added to 16.5 μl of denaturation solution (0.5 M NaOH, 1.5 M NaCl) and heated to 55° C. for 30 minutes. 495 μl of neutralization solution (0.5 M Tris-HCl, 1.5 M NaCl) was added to denatured DNA and 156 μl of this solution was added in triplicate to different slots on a Bio-Dot SF Apparatus (Bio-Rad) and blotted onto Hybond N+ Membrane (Cytivia). Membrane preparation and washing was performed as described. For samples with paired GGTTAG and GGAAAG slot blots, the above recipe was doubled, and 156 μl was loaded onto parallel membranes in triplicate on each membrane. After blotting, membranes were hybridized and detected as described above for TRF Southern blots using the probe indicated in the figure. Blots were analyzed using ImageJ. Statistical analysis was performed using Graphpad prism V9.1.0.

[2] = system: super-telomerase cells (TERC-null 293T cells transfected with TERT and TERC); assay: TRF Southern blot telomere synthesis in super-telomerase cells; type: cell-based, human; settings: treatment for 30 hours
Procedure: as §2
dT supplementation increases levels of dTTP and can reduce dCTP levels, leading to replication stress at high doses. Because replication stress signaling has been implicated in telomerase biology we asked whether replication stress induction explained the telomere length increases seen with dT treatment. We first tested whether telomere elongation is a universal response to replication stress-inducing compounds. […] However, cytotoxicity limited our ability to apply higher doses of replication stress-inducing compounds for time periods long enough to study telomere length changes. […] Using this system, we next asked how high-dose treatment with replication stress-inducing agents such as aphidicolin, hydroxyurea, and the TYMS inhibitor 5FU influence telomere synthesis compared to dT.

[3] = system: pCHK1-S345 and pRPA32-S33; assay: Immunoblot of replication stress signaling in super-telomerase cells; type: cell-based, human; settings: highest doses, 30 hours
[4] = at pH of about 7; cited from earlier work
telomere length = assay: Telomere length with cytidine and uridine (FIG. 23); type: cell-based
[5] = co-administration with dT; cited from earlier work
[6] = 8 days, doses up to those maximally tolerated
[7] = 10 days, doses up to those maximally tolerated
[8] = 100 μM of the indicated deoxynucleoside(s) for 8 days
[9] = 100 μM of the indicated deoxynucleoside(s) for 9 days
[10] = baseline 16 μM dT, plus 100 μM additional dT or 1 mM dU, 10 days

O=C1NC(=NCc2cccs2)S/C1=C\c1ccc2ncccc2c1 [RO-3306, reference compound]
telomere length (K562 cells; [6]): No changes were found in telomere length | telomere length (293T cells; [7]): No changes were found in telomere length

Nc1nc2c(ncn2[C@H]2C[C@H](O)[C@@H](CO)O2)c(=O)[nH]1 [dG, deoxyguanosine, reference compound]
telomere length (K562 cells; [8]): but not deoxyadenosine (dA) or deoxyguanosine (dG), rapidly and robustly increases telomere length | telomere length (293T cells; [9]): but not deoxyadenosine (dA) or deoxyguanosine (dG), rapidly and robustly increases telomere length

O=c1[nH]cc(F)c(=O)[nH]1 [5FU, 5-fluorouracil, reference compound]
levels of GGAAAG repeats [1]: reduced levels of GGAAAG repeats; also recorded: inhibited T-free telomerase activity | telomere repeat synthesis / telomere elongation by telomerase [2]: ablated telomere elongation by telomerase; also recorded: completely inhibited telomere elongation; also recorded: ablated telomere lengthening in super-telomerase cells | replication stress signaling [3]: induced similar levels of replication stress signaling

O=c1ccn([C@H]2C[C@H](O)[C@@H](CO)O2)c(=O)[nH]1 [dU, 1-((2R,4S,5R)-4-Hydroxy-5-(hydroxymethyl)tetrahydrofuran-2-yl)pyrimidine-2,4 (1H,3H)-dione]
telomere length with baseline of 16 μM dT (K562 cells; added dU, 10 days): increased telomere length | telomere lengthening in TYMS-knockout cells (K562 cells; [10]): no longer able to promote telomere lengthening | water solubility [4]: about 5 mg/ml | concentration giving telomere elongation to a degree similar to dT (293T cells; 10× the dT concentration): 1 mM | telomere length with baseline of 16 μM dT (293T cells; added dU, 10 days): increased telomere length | telomere lengthening in TYMS-knockout cells (293T cells; [10]): no longer able to promote telomere lengthening | telomere length (293T cells; dU 1 mM, 10 days (FIG. 9)): elongate telomeres to a degree similar to dT | telomere length (293T cells; dU 1 mM, 10 days (FIG. 9), listed as Deoxyuridine): promotes telomere elongation

Nc1ccn([C@@H]2O[C@H](CO)[C@@H](O)[C@H]2O)c(=O)n1 [cytidine, 4-amino-1-[(2R,3R,4S,5R)-3,4-dihydroxy-5-(hydroxymethyl)oxolan-2-yl]pyrimidin-2 (1H)-one]
telomere length (telomere length): increase telomere length | toxicity caused by dT [5]: reduce toxicity caused by dT

NC(=O)NO [hydroxyurea, reference compound]
telomere length (K562 cells; [6]): No changes were found in telomere length | levels of GGAAAG repeats [1]: reduced levels of GGAAAG repeats | telomere repeat synthesis / telomere elongation by telomerase [2]: ablated telomere elongation by telomerase | telomere length (293T cells; [7]): No changes were found in telomere length; also recorded: did not change telomere length after 10 days | replication stress signaling [3]: induced similar levels of replication stress signaling

O=c1ccn([C@@H]2O[C@H](CO)[C@@H](O)[C@H]2O)c(=O)[nH]1 [uridine, 1-[(2R,3R,4S,5R)-3,4-Dihydroxy-5-(hydroxymethyl)oxolan-2-yl]pyrimidine-2,4 (1H,3H)-dione]
telomere length (telomere length): increase telomere length

C[C@@]1(CO)[C@H](O)CC[C@@]2(C)[C@H]1CC[C@H]1C[C@@H]3C[C@@]12CC[C@]3(O)CO [aphidicolin, reference compound]
telomere repeat synthesis / telomere elongation by telomerase [2]: drove detectable increases in telomere length, albeit to a lesser extent than dT | telomere length (293T cells; [7]): telomere elongation after 10 days | replication stress signaling [3]: induced similar levels of replication stress signaling

Nc1ncnc2c1ncn2[C@H]1C[C@H](O)[C@@H](CO)O1 [dA, deoxyadenosine, reference compound]
telomere length (K562 cells; [8]): but not deoxyadenosine (dA) or deoxyguanosine (dG), rapidly and robustly increases telomere length | telomere length (293T cells; [9]): but not deoxyadenosine (dA) or deoxyguanosine (dG), rapidly and robustly increases telomere length

Nc1ccn([C@H]2C[C@H](O)[C@@H](CO)O2)c(=O)n1 [dC, 4-azmino-1-[(2R,4S,5R)-4-hydroxy-5-(hydroxymethyl)oxolan-2-yl]pyrimidin-2 (1H)-one]
toxicity caused by dT [5]: reduce toxicity caused by dT; also recorded: reduces toxicity of dT and improves cell growth compared to dT alone | water solubility [4]: about 870 mg/mL

Nc1nc2ncc(CNc3ccc(C(=O)N[C@@H](CCC(=O)O)C(=O)O)cc3)nc2c(=O)[nH]1 [folate, folic acid, reference compound]
telomere length (293T cells; folate supplementation up to 1 mM, 10 days): did not yield telomere elongation | telomere length (293T cells; folate supplementation up to 1 mM, 10 days, listed as folic acid): but not folic acid supplementation promotes telomere elongation
